In patent US9920049B2 (priority 2014, dated 2018) one finds IC50 data, which are given here for 11 molecules.

Each structure is given as a SMILES string.

The subject of this assay is HBsAg. As to the kind of experiment: HBsAg assay (CLIA of secreted HBsAg in HepG2.2.15 culture supernatant). Conditions: Hepatitis B virus. Type of assay: cell-based, HBV. As to the method: HepG2.2.15 cells (Acs et al. Proc Natl Acad Sci USA, 84, (1987), 4641-4), a constitutively HBV-expressing cell line were cultured in DMEM+Glutamax-I medium (Invitrogen, Carlsbad, Calif., USA), supplemented with 10% fetal bovine serum (Invitrogen) and G418 (Invitrogen) at a final concentration of 200 mg/L and maintained in 5% CO2 at 37° C.
HepG2.2.15 cells were seeded in duplicate into white, 96-well plates at 1.5×10^4 cells/well. The cells were treated with a three-fold serial dilution series of the compounds in DMSO. The final DMSO concentration in all wells was 1% and DMSO was used as no drug control.
The HBsAg chemiluminescence immunoassay (CLIA) kit (Autobio Diagnostics Co., Zhengzhou, China, Catalog number: CL0310-2) was used to measure the levels of secreted HBV antigens semi-quantitatively. For the detection 50 μL/well culture supernatant was used and HBsAg was quantified using HBsAg chemiluminescence immunoassay (CLIA) kit (Autobio Diagnostics Co., Zhengzhou, China, Catalog number: CL0310-2), 50 μl of the supernatant was transferred to the CLIA assay plate and 50 μL of enzyme conjugate reagent was added into each well. The plates were sealed and gently agitated for 1 hour at room temperature. The supernatant-enzyme-mixture was discarded and wells were washed 6 times with 300 μL of PBS. The residual liquid was removed by plating the CLIA plate right side down on absorbent tissue paper. 25 μL of substrates A and B were added to each well. Luminance was measured using a luminometer (Mithras LB 940 Multimode Microplate Reader) after 10 minutes incubation. Dose-response curves were generated and the IC50 value was extrapolated by using the E-WorkBook Suite (ID Business Solutions Ltd., Guildford, UK).
The compounds of the present invention were tested for their capacity to inhibit HBsAg as described herein.

Turning to `COCCOc1cc(Cl)c2c(c1)CC(C(C)C)n1cc(C(=O)Nc3nnn[nH]3)c(=O)cc1-2` (centres unmarked) [Example 34, 11-chloro-6-isopropyl-9-(2-methoxyethoxy)-2-oxo-N-(1H-tetrazol-5-yl)-6,7-dihydrobenzo[a]quinolizine-3-carboxamide], the IC50 (in general, the concentration needed to halve the response being measured) worked out at 18.3 µM. `CCC1Cc2cc(OCc3ccccc3)c(OC)cc2-c2cc(=O)c(C(=O)NC(C)CN(C)C)cn21` (centres unmarked) [Example 11, 9-benzyloxy-N-[2-(dimethylamino)-1-methyl-ethyl]-6-ethyl-10-methoxy-2-oxo-6,7-dihydrobenzo[a]quinolizine-3-carboxamide] came in with an IC50 of 23.9 µM. Next, `CCC1Cc2cc(OCCCOC)c(OC)cc2-c2cc(=O)c(CNC)cn21` (centres unmarked) [Example 27, 6-ethyl-10-methoxy-9-(3-methoxypropoxy)-3-(methylaminomethyl)-6,7-dihydrobenzo[a]quinolizin-2-one]: 15.8 µM. In the case of `COCCCOc1cc2c(cc1Cl)-c1cc(=O)c(C(=O)Nc3nnn[nH]3)cn1[C@H](C(C)C)C2` [Example 38, (+)-10-chloro-6-isopropyl-9-(3-methoxypropoxy)-2-oxo-N-(1H-tetrazol-5-yl)-6,7-dihydrobenzo[a]quinolizine-3-carboxamide], it took 2.3 µM to reach half-maximal inhibition (IC50). Next, `CCC1Cc2cc(OCc3ccccc3)c(OC)cc2-c2cc(=O)c(C(=O)NC(C)CO)cn21` (centres unmarked) [Example 7, 9-benzyloxy-6-ethyl-N-(2-hydroxy-1-methyl-ethyl)-10-methoxy-2-oxo-6,7-dihydrobenzo[a]quinolizine-3-carboxamide]: 7.8 µM; `CCC1Cc2cc(OCc3ccccc3)c(OC)cc2-c2cc(=O)c(C(=O)NS(C)(=O)=O)cn21` (centres unmarked) [Example 4, 9-benzyloxy-6-ethyl-10-methoxy-N-methylsulfonyl-2-oxo-6,7-dihydrobenzo[a]quinolizine-3-carboxamide]: 0.92 µM; `CCC1Cc2cc(OCc3ccccc3)c(OC)cc2-c2cc(=O)c(C(=O)NCCN(C)C)cn21` (centres unmarked) [Example 8]: 33.7 µM. `CCC1Cc2cc(OCCCOC)c(OC)cc2-c2cc(=O)c(C(=O)Nc3nnn[nH]3)cn21` (centres unmarked) [Example 14, 6-ethyl-10-methoxy-9-(3-methoxypropoxy)-2-oxo-N-(1H-tetrazol-5-yl)-6,7-dihydrobenzo[a]quinolizine-3-carboxamide] registered an IC50 of 1.1 µM. For `COCCCOc1cc2c(cc1OC)-c1cc(=O)c(C(=O)Nc3nnn[nH]3)cn1C(C(C)C)C2` (centres unmarked) [Example 36, 6-isopropyl-10-methoxy-9-(3-methoxypropoxy)-2-oxo-N-(1H-tetrazol-5-yl)-6,7-dihydrobenzo[a]quinolizine-3-carboxamide], the IC50 came to 5.5 µM. The molecule `CCC1Cc2cc(OCCCOC)c(OC)cc2-c2cc(=O)c(CN3CCOCC3C(=O)O)cn21` (centres unmarked) [Example 21, 4-[[6-ethyl-10-methoxy-9-(3-methoxypropoxy)-2-oxo-6,7-dihydrobenzo[a]quinolizin-3-yl]methyl]morpholine-3-carboxylic Acid] returned a half-maximal inhibitory concentration (IC50) of 19.4 µM. `CCC1Cc2cc(OCCCOC)c(OC)cc2-c2cc(=O)c(CN(C)C)cn21` (centres unmarked) [Example 28, 3-[(dimethylamino)methyl]-6-ethyl-10-methoxy-9-(3-methoxypropoxy)-6,7-dihydrobenzo[a]quinolizin-2-one] displayed an IC50 of 3.7 µM.
